Laboratory results taken from the supplement of paper PMC10307832.

Key:
Experiment in all cases: relative viability (nuclei count vs DMSO), 5 days (fraction); higher = more cells survive
[1] = compound: Cc1ccc2nc(NCCN)c3ncc(C)n3c2c1 + COc1cc2c(Oc3ccc(NC(=O)C4(C(=O)Nc5ccc(F)cc5)CC4)cc3F)ccnc2cc1OCCCN1CCOCC1 [Foretinib] (partner 0.25 µM)
Outline: (§1)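 Lung cancer cell lines were seeded in 1536-well plates and dosed by pin tool the next day, with either a single drug or a fixed anchor-drug dose combined with five library-drug doses (not always all listed) spaced in √10 steps. Five days later, one step fixed the cells and stained their nuclei (final 0.05% Triton X-100, 1% formaldehyde, 1 ug/ml Hoechst), and nuclei were counted on 4× images. Relative viability is the nuclei count in treated wells divided by the count in vehicle wells, and each value is the median of duplicate plates.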

[2] = compound: Cc1ccc2nc(NCCN)c3ncc(C)n3c2c1 + C[C@@H](Oc1cc(-c2cnn(C3CCNCC3)c2)cnc1N)c1c(Cl)ccc(F)c1Cl [Crizotinib] (partner 1 µM)
Outline: as §1

[3] = compound: Cc1ccc2nc(NCCN)c3ncc(C)n3c2c1 + C[C@]1(O)C[C@@H](c2nc(-c3ccc4ccc(-c5ccccc5)nc4c3)c3c(N)nccn32)C1 [Linsitinib] (partner 1 µM)
Outline: as §1

Salubrinal + Pictilisib = compound: O=C(/C=C/c1ccccc1)NC(NC(=S)Nc1cccc2cccnc12)C(Cl)(Cl)Cl [Salubrinal] + CS(=O)(=O)N1CCN(Cc2cc3nc(-c4cccc5[nH]ncc45)nc(N4CCOCC4)c3s2)CC1 [Pictilisib] (partner 1 µM)
Outline: as §1

Row | Cell Line | relative viability ([1]; first compound 0.04 µM) | relative viability ([1]; first compound 0.1265 µM) | relative viability ([1]; first compound 0.4 µM) | relative viability ([1]; first compound 1.265 µM) | relative viability ([1]; first compound 4 µM) | relative viability ([2]; first compound 0.04 µM) | relative viability ([2]; first compound 0.1265 µM) | relative viability ([2]; first compound 0.4 µM) | relative viability ([2]; first compound 1.265 µM) | relative viability ([2]; first compound 4 µM) | relative viability ([3]; first compound 0.04 µM) | relative viability ([3]; first compound 0.1265 µM) | relative viability ([3]; first compound 0.4 µM) | relative viability ([3]; first compound 1.265 µM) | relative viability ([3]; first compound 4 µM) | relative viability (Salubrinal + Pictilisib; first compound 0.08 µM) | relative viability (Salubrinal + Pictilisib; first compound 0.253 µM) | relative viability (Salubrinal + Pictilisib; first compound 0.8 µM) | relative viability (Salubrinal + Pictilisib; first compound 2.53 µM) | relative viability (Salubrinal + Pictilisib; first compound 8 µM)
1 | HCC-15 | 1.08 | 1.07 | 1.06 | 0.885 | 0.723 | 0.791 | 0.8 | 0.779 | 0.742 | 0.693 | 0.886 | 0.833 | 0.855 | 0.805 | 0.905 | 0.77 | 0.643 | 0.837 | 0.728 | 0.759
2 | A-427 | 1.09 | 1.03 | 0.962 | 1 | 0.948 | 1.01 | 1.01 | 0.835 | 0.966 | 0.942 | 0.922 | 1.01 | 1.08 | 1.09 | 1.19 | 0.805 | 0.748 | 0.853 | 0.785 | 0.759
3 | NCI-H2228 | 0.896 | 0.764 | 0.829 | 0.798 | 0.749 | 0.51 | 0.436 | 0.53 | 0.346 | 0.405 | 0.642 | 0.443 | 0.587 | 0.751 | 0.44 | 0.472 | 0.356 | 0.31 | 0.543 | 0.321
4 | NCI-H1734 | 0.911 | 0.903 | 0.78 | 0.95 | 0.801 | 0.673 | 0.733 | 0.747 | 0.607 | 0.706 | 0.887 | 0.803 | 0.765 | 0.884 | 0.814 | 0.452 | 0.508 | 0.503 | 0.517 | 0.438
5 | PC-14 | 0.944 | 0.908 | 0.984 | 0.933 | 0.943 | 1.08 | 0.862 | 0.864 | 0.901 | 0.892 | 0.962 | 0.957 | 0.947 | 0.964 | 0.9 | 0.792 | 0.597 | 0.668 | 0.702 | 0.626
6 | NCI-H1915 | 1.11 | 1.06 |  | 1.12 | 1.03 | 0.823 |  | 0.816 | 0.868 | 0.914 | 1.1 |  | 1.16 | 1.1 | 1 | 0.855 | 0.942 | 0.999 | 0.946 | 0.953
7 | NCI-H1666 | 0.96 | 0.903 | 1.04 | 1.02 | 0.921 | 0.998 | 1.01 | 0.874 | 0.852 | 0.907 | 0.909 | 0.843 | 0.942 | 0.822 | 0.71 | 0.398 | 0.491 | 0.485 | 0.404 | 0.45
8 | HCC-366 | 0.914 | 0.945 | 0.934 | 0.945 | 0.917 | 0.642 | 0.553 | 0.582 | 0.508 | 0.502 | 0.622 | 0.612 | 0.642 | 0.78 | 0.49 | 0.132 | 0.143 | 0.121 | 0.151 | 0.179
9 | NCI-H2170 | 1.05 | 0.981 | 0.975 | 1.03 | 1.02 | 1.17 | 1.14 | 1.1 | 1.21 | 1.06 |  |  |  |  |  | 0.29 | 0.315 | 0.335 | 0.294 | 0.271
10 | SW 1573 | 1.02 | 0.966 | 1.09 | 0.945 | 0.859 | 0.924 | 0.792 | 0.704 | 0.895 | 0.659 | 0.928 | 0.824 | 0.883 | 0.985 | 0.821 | 0.539 | 0.406 | 0.537 | 0.465 | 0.471
11 | NCI-H661 | 1.02 | 0.983 | 1.03 | 1.1 | 0.967 | 1.05 | 1.07 | 0.931 | 1.07 | 0.959 | 0.644 | 0.511 | 0.449 |  | 0.543 | 0.434 | 0.196 | 0.443 | 0.384 | 0.569
12 | PC-3 [JPC-3] | 1.1 | 1.04 | 0.934 | 0.986 | 1.09 | 0.973 | 0.992 | 0.974 | 0.947 | 0.966 | 0.962 | 0.941 | 0.924 | 0.948 | 0.947 | 0.796 | 0.666 | 0.714 | 0.727 | 0.702
13 | NCI-H2342 | 1.24 | 1.06 | 0.987 | 1.05 | 1.14 |  |  |  |  |  |  |  |  |  |  |  |  |  |  | 
14 | Calu-6 | 0.855 | 0.841 | 0.815 | 0.833 | 0.811 | 0.803 | 0.776 | 0.794 | 0.77 | 0.426 | 0.872 | 0.895 | 0.966 | 0.982 | 0.983 | 1.11 | 0.817 | 0.925 | 0.871 | 0.792
15 | LC-2-ad | 0.96 | 0.879 | 0.876 | 0.984 | 0.868 | 0.467 | 0.448 | 0.44 | 0.406 | 0.476 | 0.851 | 0.871 | 0.891 | 0.864 | 0.806 | 0.457 | 0.448 | 0.519 | 0.385 | 0.323
